Measurements: patent US9668477B2, “Active compound combinations” (BAYER CROPSCIENCE AG, priority 2012, dated 2017)

Assays:
Assay type in all cases: in vivo
Leptosphaeria nodorum = Leptosphaeria nodorum test (wheat)/preventive; settings: Table C1, 8 days after inoculation
Protocol: Solvent: 49 parts by weight of N,N-dimethylacetamide Emulsifier: 1 part by weight of alkylaryl polyglycol ether To produce a suitable preparation of active compound, 1 part by weight of active compound or active compound combination is mixed with the stated amounts of solvent and emulsifier, and the concentrate is diluted with water to the desired concentration. To test for preventive activity, young plants are sprayed with the preparation of active compound or active compound combination at the stated rate of application. After the spray coating has been dried, the plants are sprayed with a spore suspension of Leptosphaeria nodorum.

Phakopsora pachyrhizi = test: Phakopsora test (soybeans)/preventive; settings: 7 days after inoculation
Pyrenophora teres = test: Pyrenophora teres-test (barley)/preventive; settings: Table F1, 8 days after inoculation
Protocol: (§1) Solvent: 49 parts by weight of N,N-dimethylacetamide
(§2) Emulsifier: 1 part by weight of alkylaryl polyglycol ether
(§3) To produce a suitable preparation of active compound, 1 part by weight of active compound or active compound combination is mixed with the stated amounts of solvent and emulsifier, and the concentrate is diluted with water to the desired concentration.
(§4) To test for preventive activity, young plants are sprayed with the preparation of active compound or active compound combination at the stated rate of application.
After the spray coating has been dried, the plants are sprayed with a spore suspension of Pyrenophora teres. The plants remain for 48 hours in an incubation cabinet at approximately 20° C. and a relative atmospheric humidity of approximately 100%.
(§5) The plants are placed in the greenhouse at a temperature of approximately 20° C. and a relative atmospheric humidity of approximately 80%.
(§6) The test is evaluated 8 days after the inoculation. 0% means an efficacy which corresponds to that of the untreated control, while an efficacy of 100% means that no disease is observed.

Uromyces appendiculatus = test: Uromyces test (beans)/preventive; settings: 10 days after inoculation
Protocol: (§7) Solvent: 24.5 parts by weight of acetone • 24.5 parts by weight of dimethylacetamide
as §2
(§8) To produce a suitable preparation of active compound, 1 part by weight of active compound is mixed with the stated amounts of solvent and emulsifier, and the concentrate is diluted with water to the desired concentration.
(§9) To test for preventive activity, young plants are sprayed with the preparation of active compound at the stated rate of application. After the spray coating has dried on, the plants are inoculated with an aqueous spore suspension of the causal agent of bean rust (Uromyces appendiculatus) and then remain for 1 day in an incubation cabinet at approximately 20° C. and a relative atmospheric humidity of 100%.
The plants are then placed in a greenhouse at approximately 21° C. and a relative atmospheric humidity of approximately 90%.
The test is evaluated 10 days after the inoculation. 0% means an efficacy which corresponds to that of the untreated control, while an efficacy of 100% means that no disease is observed.

Venturia inaequalis = test: Venturia test (apples)/preventive; settings: Table I1, 10 days after inoculation
Protocol: (§10) Solvent: 24.5 parts by weight of acetone • 24.5 parts by weight of dimethylacetamide Emulsifier: 1 part by weight of alkylaryl polyglycol ether To produce a suitable preparation of active compound, 1 part by weight of active compound is mixed with the stated amounts of solvent and emulsifier, and the concentrate is diluted with water to the desired concentration. To test for preventive activity, young plants are sprayed with the preparation of active compound at the stated rate of application.

Puccinia triticina = test: Puccinia triticina-test (wheat)/preventive; settings: Table E1, 8 days after inoculation
Protocol: as §1, §2, §3, §4
After the spray coating has been dried, the plants are sprayed with a spore suspension of Puccinia triticina. The plants remain for 48 hours in an incubation cabinet at approximately 20° C. and a relative atmospheric humidity of approximately 100%.
as §5, §6

Sphaerotheca fuliginea = test: Sphaerotheca test (cucumbers)/preventive; settings: Table G1, 7 days after inoculation
Protocol: as §10, with “application. After the spray coating has dried on, the plants are inoculated with an aqueous spore suspension of Sphaerotheca fuliginea.” for “application.”

Alternaria solani = test: Alternaria test (tomatoes)/preventive; settings: 3 days after inoculation
Protocol: as §7, §2, §8
as §9, with “Alternaria solani. The plants are” for “the causal agent of bean rust (Uromyces appendiculatus) and”, “placed” for “remain for 1 day”
The test is evaluated 3 days after the inoculation. 0% means an efficacy which corresponds to that of the untreated control while an efficacy of 100% means that no disease is observed.

[1] = system: Blumeria graminis f.sp. hordei; test: Blumeria test (barley)/preventive; settings: Table B1, 7 days after inoculation
Protocol: Solvent: 49 parts by weight of N,N-dimethylacetamide Emulsifier: 1 part by weight of alkylaryl polyglycol ether To produce a suitable preparation of active compound, 1 part by weight of active compound or active compound combination is mixed with the stated amounts of solvent and emulsifier, and the concentrate is diluted with water to the desired concentration. To test for preventive activity, young plants are sprayed with the preparation of active compound or active compound combination at the stated rate of application. After the spray coating has been dried, the plants are dusted with spores of Blumeria graminis f.sp. hordei.

[2] = Phakopsora pachyrhizi, 168 h, Table D1, 1 ppm a.i., read-out: Efficacy in % found

Compound: Fc1ccc([C@]2(Cn3cncn3)O[C@H]2c2ccccc2Cl)cc1 (racemic) [1.12, epoxiconazole]
- Efficacy in % found (Leptosphaeria nodorum; 40 ppm a.i.): 33%
- Efficacy in % found (Phakopsora pachyrhizi; Table D2, 0.5 ppm a.i.): 23%

Compound: Cn1cc(C(=O)Nc2cccc3c2[C@@H]2CC[C@H]3C2=C(Cl)Cl)c(C(F)F)n1 (racemic) [2.29, benzovindiflupyr]
- Efficacy in % found (Pyrenophora teres; 40 ppm a.i.): 0%
- Efficacy in % found (Phakopsora pachyrhizi; Table D1, 0.5 ppm a.i.): 8%

Compound: CC(C1CC1)C(O)(Cn1cncn1)c1ccc(Cl)cc1 (stereo not drawn) [1.5, cyproconazole]
- Efficacy in % found (Uromyces appendiculatus; Table H3, 1 ppm a.i.): 57%
- Efficacy in % found (Venturia inaequalis; 2 ppm a.i.): 40%
- pest or weed control at 1 ppm (Phakopsora pachyrhizi; [2]): 63%

Compound: CC1(C)CCC(Cc2ccc(Cl)cc2)C1(O)Cn1cncn1 (stereo not drawn) [1.30, metconazole]
- Efficacy in % found (Puccinia triticina; 40 ppm a.i.): 70%

Compound: OC(Cc1ccccc1Cl)(Cn1nc[nH]c1=S)C1(Cl)CC1 (stereo not drawn) [1.41, prothioconazole]
- Efficacy in % found (Puccinia triticina; 80 ppm a.i.): 20%
- pest or weed control at 0.5 ppm (Phakopsora pachyrhizi; Phakopsora pachyrhizi, 168 h, Table D2, 0.5 ppm a.i., read-out: Efficacy in % found): 20%

Compound: CC(C)(C)C(O)(CCc1ccc(Cl)cc1)Cn1cncn1 (stereo not drawn) [1.47, tebuconazole]
- Efficacy in % found (Uromyces appendiculatus; Table H2, 2 ppm a.i.): 30%
- Efficacy in % found (Sphaerotheca fuliginea; 2.5 ppm a.i.): 38%
- pest or weed control at 1 ppm (Phakopsora pachyrhizi; [2]): 58%

Compound: Cn1cc(C(=O)Nc2ccc(F)cc2-c2ccc(Cl)c(Cl)c2)c(C(F)F)n1 [2.1, bixafen]
- Efficacy in % found (Pyrenophora teres; 80 ppm a.i.): 94%
- Efficacy in % found (Venturia inaequalis; 0.5 ppm a.i.): 0%
- Efficacy in % found (Alternaria solani; Table A1, 0.5 ppm a.i.): 43%
- Efficacy in % found (Phakopsora pachyrhizi; Table D1, 1 ppm a.i.): 0%

Compound: O=C(NCCc1ncc(C(F)(F)F)cc1Cl)c1ccccc1C(F)(F)F [2.6, fluopyram]
- Efficacy in % found (Pyrenophora teres; 40 ppm a.i.): 94%
- pest or weed control at 4 ppm (Phakopsora pachyrhizi; Phakopsora pachyrhizi, 168 h, Table D1, 4 ppm a.i., read-out: Efficacy in % found): 0%

Compound: Cn1cc(C(=O)Nc2ccccc2-c2cc(F)c(F)c(F)c2)c(C(F)F)n1 [2.8, fluxapyroxad]
- Efficacy in % found (Uromyces appendiculatus; Table H1, 0.25 ppm a.i.): 0%
- Efficacy in % found (Pyrenophora teres; 40 ppm a.i.): 94%
- Efficacy in % found (Phakopsora pachyrhizi; Table D1, 1 ppm a.i.): 0%

Compound: CC(C)CC(C)c1sccc1NC(=O)c1cn(C)nc1C(F)(F)F (stereo not drawn) [2.21, penthiopyrad]
- Efficacy in % found (Pyrenophora teres; 80 ppm a.i.): 63%
- Efficacy in % found ([1]; 80 ppm a.i.): 30%

Compound: CC1CC(C)(C)c2cccc(NC(=O)c3cn(C)nc3C(F)F)c21 (stereo not drawn) [2.32, 3-(difluoromethyl)-1-methyl-N-(1,1,3-trimethyl-2,3-dihydro-1H-inden-4-yl)-1H-pyrazole-4-carboxamide]
- Efficacy in % found ([1]; 80 ppm a.i.): 30%

Compound: CO/C=C(/C(=O)OC)c1ccccc1Oc1cc(Oc2ccccc2C#N)ncn1 [3.3, azoxystrobin]
- Efficacy in % found (Uromyces appendiculatus; Table H3, 0.125 ppm a.i.): 0%
- Efficacy in % found (Pyrenophora teres; 20 ppm a.i.): 75%
- Efficacy in % found (Venturia inaequalis; 0.5 ppm a.i.): 88%
- Efficacy in % found (Phakopsora pachyrhizi; Table D1, 0.25 ppm a.i.): 15%
- Efficacy in % found ([1]; 20 ppm a.i.): 10%

Compound: CO/N=C(/C1=NOCCO1)c1ccccc1Oc1ncnc(Oc2ccccc2Cl)c1F [3.12, fluoxastrobin]
- Efficacy in % found (Pyrenophora teres; 20 ppm a.i.): 13%

Compound: CO/C=C(/C(=O)OC)c1ccccc1COc1cccc(C(F)(F)F)n1 [3.16, picoxystrobin]
- Efficacy in % found (Uromyces appendiculatus; Table H1, 2.5 ppm a.i.): 65%
- Efficacy in % found (Pyrenophora teres; 40 ppm a.i.): 75%
- Efficacy in % found ([1]; 40 ppm a.i.): 30%

Compound: COC(=O)N(OC)c1ccccc1COc1ccn(-c2ccc(Cl)cc2)n1 [3.17, pyraclostrobin]
- Efficacy in % found (Puccinia triticina; 20 ppm a.i.): 20%

Compound: CON=C(C(=O)OC)c1ccccc1CON=C(C)c1cccc(C(F)(F)F)c1 [3.22, trifloxystrobin]
- Efficacy in % found (Puccinia triticina; 20 ppm a.i.): 60%
- Efficacy in % found (Venturia inaequalis; 0.5 ppm a.i.): 86%

Compound: N#Cc1c(Cl)c(Cl)c(Cl)c(C#N)c1Cl [5.4, chlorothalonil]
- Efficacy in % found (Uromyces appendiculatus; Table H2, 20 ppm a.i.): 0%
- Efficacy in % found (Sphaerotheca fuliginea; 5 ppm a.i.): 19%
- Efficacy in % found (Puccinia triticina; 160 ppm a.i.): 20%
- Efficacy in % found (Venturia inaequalis; 20 ppm a.i.): 68%
- Efficacy in % found (Alternaria solani; Table A2, 20 ppm a.i.): 8%

Compound: Cn1c(=O)c2sc3c(=O)n(C)c(=O)c3sc2c1=O [15.61, 2,6-dimethyl-1H,5H-[1,4]dithiino[2,3-c:5,6-c′]dipyrrole-1,3,5,7(2H,6H)-tetrone]
- Efficacy in % found (Sphaerotheca fuliginea; 25 ppm a.i.): 38%
- Efficacy in % found (Puccinia triticina; 800 ppm a.i.): 40%
- Efficacy in % found (Alternaria solani; Table A2, 50 ppm a.i.): 23%

Compound: CC(C)c1ccc(Cl)cc1CN(C(=O)c1c(C(F)F)nn(C)c1F)C1CC1 [15.151, N-(5-chloro-2-isopropylbenzyl)-N-cyclopropyl-3-(difluoromethyl)-5-fluoro-1-methyl-1H-pyrazole-4-carboxamide]
- Efficacy in % found (Pyrenophora teres; 20 ppm a.i.): 88%
- Efficacy in % found (Alternaria solani; Table A1, 0.25 ppm a.i.): 39%
- Efficacy in % found ([1]; 20 ppm a.i.): 0%

Compound: propineb [5.29]
- Efficacy in % found (Uromyces appendiculatus; Table H2, 20 ppm a.i.): 56%
- Efficacy in % found (Sphaerotheca fuliginea; 10 ppm a.i.): 29%
- Efficacy in % found (Puccinia triticina; 400 ppm a.i.): 30%
- Efficacy in % found (Venturia inaequalis; 5 ppm a.i.): 14%
- Efficacy in % found (Leptosphaeria nodorum; 400 ppm a.i.): 33%
- Efficacy in % found (Alternaria solani; Table A2, 20 ppm a.i.): 12%
